# Reference: publication PMC6943619, “Synthesis and Pharmacological Evaluation of Hybrids Targeting Opioid and Neurokinin Receptors” (Molecules, 2019)
# Where two headings read alike, the source gives them in different places. Where a SMILES comes first, the peptide text is derived from it. Bridges are numbered along the chain shown (N, C = ends). [ ]: non-standard residue; d: D form. Nle = CCCC[C@H](N)C(=O)O
# Columns and labels:
# human NK1 [1] = target: T1, human NK1 (Homo sapiens, UniProt P25103); assay: Calcium mobilization functional assay, agonist mode, CHONK1 cells; type: cell-based; set-up: expressed in transfected cells; host or cells: CHO cells (gift of Prof. T. Costa, ISS, Rome); conditions: for NK1 α ± SEM: efficacy (intrinsic activity), Emax relative to SP
# [2] = target: T2, human opioid receptor MOR (Homo sapiens, UniProt P35372); assay: Radioligand binding assay, displacement of [3H]DAMGO; conditions: displacement of [3H]DAMGO from membranes of CHO cells transfected with human MOR, 50 mM Tris/HCl pH 7.4, 0.5% BSA, peptidase inhibitors, 2 h at 25 °C, mean ± SEM, n ≥ 3
# T2 construct: purchased PerkinElmer (Krakow, Poland); host or cells: CHO cell membranes
# Description: (§1) A radioligand binding assay was performed to determine the opioid receptor (OR) binding affinities of the novel analogs using commercially available membranes of Chinese hamster ovary cells (CHO) transfected with human recombinant ORs. [^3H]DAMGO, [^3H]deltorphin-2, and [^3H]U-69593 were used as the radioligands for MOR, DOR, and KOR, respectively. Tyr-[D-Lys-Phe-Phe-Asp]NH2 (1) was used as a reference opioid compound. […] None of them acquired significant DOR affinity.
# (§2) To determine the affinity of peptide analogs to respective receptors, competition binding experiments were performed, as described in detail elsewhere.
# (§3) Commercial membranes of CHO cells stably expressing either human ORs or NK1 receptor were used. [^3H]DAMGO, [^3H]deltorphin-2, and [^3H]U-69593 were employed as the competing radioligands for MOR, DOR, and KOR, respectively, while [^3H][Sar^9, Met(O2)^11]SP was utilized for the NK1 receptor. Membranes were incubated in a 0.5 mL volume of 50 mM Tris/HCl (pH = 7.4), 0.5% bovine serum albumin (BSA), with a number of peptidase inhibitors (bacitracin, bestatin, captopril) and various concentrations of radioligands for 2 h at 25 °C. Nonspecific binding was assessed in the presence of […] naloxone for ORs or SP for NK1 receptor.
# (§4) The pharmacological terminology adopted in this paper is consistent with International Union of Basic and Clinical Pharmacology (IUPHAR) recommendations. Concentration–response curves were analyzed by nonlinear regression using Graph Pad Prism 6.0 (La Jolla, CA, USA). […]. […] Concentration–response curves were fitted with the four-parameter logistic nonlinear regression model (1) Effect=baseline+Emax−baseline/1+10^logEC50−X·n where X is the agonist concentration and n is the Hill coefficient. Ligand efficacy was expressed as intrinsic activity (α) calculated as a ratio of the peptide Emax to the Emax of the standard agonist (Supplementary Materials, Figure S7). […]. All statistical analyses were performed using Graph Pad Prism 6.0 (La Jolla, CA, USA). Differences between groups were analyzed with one-way ANOVA and a post hoc multiple comparison by the Student–Newman–Keuls test. A probability level of 0.05 or smaller was used to indicate statistical significance.
# [3] = target: T3, human opioid receptor DOR (Homo sapiens, UniProt P41143); assay: Radioligand binding assay, displacement of [3H]deltorphin-2; conditions: displacement of [3H]deltorphin-2 from membranes of CHO cells transfected with human DOR, 50 mM Tris/HCl pH 7.4, 0.5% BSA, peptidase inhibitors, 2 h at 25 °C, mean ± SEM, n ≥ 3
# T3 construct: purchased PerkinElmer (Krakow, Poland); host or cells: CHO cell membranes
# Description: A radioligand binding assay was performed to determine the opioid receptor (OR) binding affinities of the novel analogs using commercially available membranes of Chinese hamster ovary cells (CHO) transfected with human recombinant ORs. […] Tyr-[D-Lys-Phe-Phe-Asp]NH2 (1) was used as a reference opioid compound.
# as §2
# (§5) Commercial membranes of CHO cells stably expressing either human ORs or NK1 receptor were used. […] Membranes were incubated in a 0.5 mL volume of 50 mM Tris/HCl (pH = 7.4), 0.5% bovine serum albumin (BSA), with a number of peptidase inhibitors (bacitracin, bestatin, captopril) and various concentrations of radioligands for 2 h at 25 °C.
# (§6) The pharmacological terminology adopted in this paper is consistent with International Union of Basic and Clinical Pharmacology (IUPHAR) recommendations. Concentration–response curves were analyzed by nonlinear regression using Graph Pad Prism 6.0 (La Jolla, CA, USA). […] Concentration–response curves were fitted with the four-parameter logistic nonlinear regression model (1) Effect=baseline+Emax−baseline/1+10^logEC50−X·n where X is the agonist concentration and n is the Hill coefficient. Ligand efficacy was expressed as intrinsic activity (α) calculated as a ratio of the peptide Emax to the Emax of the standard agonist (Supplementary Materials, Figure S7). […] All statistical analyses were performed using Graph Pad Prism 6.0 (La Jolla, CA, USA). Differences between groups were analyzed with one-way ANOVA and a post hoc multiple comparison by the Student–Newman–Keuls test. A probability level of 0.05 or smaller was used to indicate statistical significance.
# [4] = target: T4, human opioid receptor KOR (Homo sapiens, UniProt P41145); assay: Radioligand binding assay, displacement of [3H]U-69593; conditions: displacement of [3H]U-69593 from membranes of CHO cells transfected with human KOR, 50 mM Tris/HCl pH 7.4, 0.5% BSA, peptidase inhibitors, 2 h at 25 °C, mean ± SEM, n ≥ 3
# T4 construct: purchased PerkinElmer (Krakow, Poland); host or cells: CHO cell membranes
# Description: as §1, §2, §3, §4
# human MOR = target: T5, human MOR (Homo sapiens, UniProt P35372); assay: Calcium mobilization functional assay, agonist mode; type: cell-based; conditions: CHO cells co-expressing human MOR and Gαqi5, n = 5; for EC50: Fluo-4 AM calcium signal, read-out: MOR pEC50 (CL95%) (converted); for MOR α ± SEM: efficacy (intrinsic activity), Emax relative to EM-2, mean ± SEM
# T5 construct: expressed in transfected cells; host or cells: CHO cells (University of Ferrara), co-expressing Gαqi5
# DOR = target: T6, DOR (Homo sapiens, UniProt P41143); assay: as above; type: cell-based; conditions: CHO cells co-expressing DOR and GαqG66Di5, n = 5; for DOR α ± SEM: efficacy (intrinsic activity), Emax relative to DPDPE, mean ± SEM; for EC50: read-out: DOR pEC50 (CL95%) (converted)
# T6 construct: expressed in transfected cells; host or cells: CHO cells (University of Ferrara), co-expressing GαqG66Di5
# human KOR = target: T7, human KOR (Homo sapiens, UniProt P41145); assay: as above; type: cell-based; conditions: for KOR α ± SEM: efficacy (intrinsic activity), Emax relative to dynorphin A, mean ± SEM
# T7 construct: expressed in transfected cells; host or cells: CHO cells (University of Ferrara), co-expressing Gαqi5
# human NK1 [5] = target: T1, human NK1; assay: Radioligand binding assay, displacement of [3H][Sar9, Met(O2)11]SP; set-up: purchased PerkinElmer (Krakow, Poland); host or cells: CHO cell membranes; conditions: displacement of [3H][Sar9, Met(O2)11]SP from membranes of CHO cells transfected with human NK1 receptor; 50 mM Tris/HCl pH 7.4, 0.5% BSA, peptidase inhibitors, 2 h at 25 °C; mean ± SEM, n ≥ 3; SEM
# Description: The binding assay was also used to examine the affinity of the synthesized hybrids for NK1 in commercial membranes of CHO cells stably expressing human NK1.
# as §2, §5, §6
# human NK1 [6] = target: T1, human NK1; assay: Calcium mobilization assay, inhibition response experiments against SP; type: cell-based; set-up: expressed in transfected cells; host or cells: CHO cells (gift of Prof. T. Costa, ISS, Rome)
# Description: Following aspiration of the loading solution and a washing step, serial dilutions of peptide stock solutions were added.
# as §6
# [7] = CHO cells co-expressing human KOR and Gαqi5, Fluo-4 AM calcium signal, n = 5, read-out: KOR pEC50 (CL95%) (converted)
# [8] = CHO cells co-expressing human KOR and Gαqi5, n = 5
# T1 sequence (P25103 whole entry): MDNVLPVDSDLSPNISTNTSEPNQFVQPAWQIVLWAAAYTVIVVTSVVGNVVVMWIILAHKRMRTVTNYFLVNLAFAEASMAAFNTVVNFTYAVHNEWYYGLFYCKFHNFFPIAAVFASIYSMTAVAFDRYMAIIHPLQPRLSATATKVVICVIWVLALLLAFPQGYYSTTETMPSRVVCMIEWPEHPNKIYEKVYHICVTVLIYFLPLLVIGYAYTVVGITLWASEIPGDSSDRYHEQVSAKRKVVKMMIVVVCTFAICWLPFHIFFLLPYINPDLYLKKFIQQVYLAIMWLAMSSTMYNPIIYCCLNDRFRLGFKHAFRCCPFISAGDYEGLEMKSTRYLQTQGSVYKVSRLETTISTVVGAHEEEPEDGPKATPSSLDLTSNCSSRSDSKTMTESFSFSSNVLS
# T7 sequence (P41145 whole entry): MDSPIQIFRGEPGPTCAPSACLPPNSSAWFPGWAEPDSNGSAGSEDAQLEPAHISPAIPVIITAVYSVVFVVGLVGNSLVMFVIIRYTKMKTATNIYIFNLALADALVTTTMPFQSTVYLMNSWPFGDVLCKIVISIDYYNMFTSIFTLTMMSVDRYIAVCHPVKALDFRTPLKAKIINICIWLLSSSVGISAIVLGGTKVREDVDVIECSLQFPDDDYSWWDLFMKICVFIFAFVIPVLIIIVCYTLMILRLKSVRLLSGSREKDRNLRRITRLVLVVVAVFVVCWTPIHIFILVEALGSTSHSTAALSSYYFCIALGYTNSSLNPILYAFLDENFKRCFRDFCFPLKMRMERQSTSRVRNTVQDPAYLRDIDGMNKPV
# T4 sequence (P41145 whole entry): as above
# T2 sequence (P35372 whole entry): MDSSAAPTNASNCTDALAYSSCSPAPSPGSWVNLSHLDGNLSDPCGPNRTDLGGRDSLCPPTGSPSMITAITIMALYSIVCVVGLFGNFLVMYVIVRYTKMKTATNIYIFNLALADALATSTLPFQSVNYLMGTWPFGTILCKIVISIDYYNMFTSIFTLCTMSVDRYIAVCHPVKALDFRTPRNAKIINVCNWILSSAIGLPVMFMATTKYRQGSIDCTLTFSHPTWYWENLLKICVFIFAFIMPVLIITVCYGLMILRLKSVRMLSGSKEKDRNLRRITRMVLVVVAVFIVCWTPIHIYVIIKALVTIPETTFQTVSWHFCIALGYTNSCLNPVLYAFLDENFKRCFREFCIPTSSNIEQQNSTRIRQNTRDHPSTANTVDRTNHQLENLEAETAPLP
# T5 sequence (P35372 whole entry): as above
# T3 sequence (P41143 whole entry): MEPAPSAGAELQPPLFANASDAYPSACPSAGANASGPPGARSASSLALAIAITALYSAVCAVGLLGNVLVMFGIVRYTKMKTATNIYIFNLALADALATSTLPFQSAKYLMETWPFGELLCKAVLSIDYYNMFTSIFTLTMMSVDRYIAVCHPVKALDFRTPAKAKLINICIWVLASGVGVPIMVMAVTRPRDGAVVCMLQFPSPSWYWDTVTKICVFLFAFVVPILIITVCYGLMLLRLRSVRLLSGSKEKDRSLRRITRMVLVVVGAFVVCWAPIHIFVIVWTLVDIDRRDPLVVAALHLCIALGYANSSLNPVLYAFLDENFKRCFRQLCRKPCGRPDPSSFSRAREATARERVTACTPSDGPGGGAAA
# T6 sequence (P41143 whole entry): as above
Structure (SMILES),"effect per se on intracellular calcium levels (tested as an agonist) (human NK1 [1]; CHONK1 cells, up to 10 µM)",Ki [2],Ki [3],Ki [4],EC50 (human MOR),MOR α ± SEM (human MOR),MOR α ± SEM (human MOR; SEM),DOR pEC50 (CL95%) (DOR; Fluo-4 AM calcium signal),DOR α ± SEM (DOR),EC50 (human KOR; [7]),KOR α ± SEM (human KOR; [8]),Ki (human NK1 [5]),"NK1 pEC50 (CL95%) (human NK1 [1]; CHO cells expressing human NK1 (CHONK1), Fluo-4 AM calcium signal, N = 5)","NK1 α ± SEM (human NK1 [1]; CHONK1 cells, N = 5)",Kb (human NK1 [6]),EC50 (DOR; Fluo-4 AM calcium signal),DOR α ± SEM (DOR; SEM),EC50 (human KOR),EC50 (human NK1 [1]),"NK1 α ± SEM (human NK1 [1]; CHONK1 cells, N = 5, SEM)"
"C[C@@H](O[C@H]1OCCN(Cc2n[nH]c(=O)[nH]2)[C@H]1c1ccc(F)cc1)c1cc(C(F)(F)F)cc(C(F)(F)F)c1 [aprepitant, reference compound]",did not modify,–,–,–,–,–,–,–,–,–,–,–,–,–,–,–,–,–,–,–
"CCCC[C@H](NC(=O)[C@H](CC(C)C)NC(=O)[C@@H](Cc1c[nH]c2ccccc12)NC(=O)[C@H](Cc1ccccc1)NC(=O)[C@@H](Cc1c[nH]c2ccccc12)NC(=O)[C@@H]1CC(=O)NCCCC[C@@H](NC(=O)[C@@H](N)Cc2ccc(O)cc2)C(=O)N[C@@H](Cc2ccccc2)C(=O)N[C@@H](Cc2ccccc2)C(=O)N1)C(N)=O [compound 3, Tyr-[D-Lys-Phe-Phe-Asp]-D-Trp-Phe-D-Trp-Leu-Nle-NH2] (H-Y[dK]FFD[dW]F[dW]L[Nle]-NH2; lactam 2-5)",–,28.2 ± 1.45 nM,213 ± 6.31 nM,2.85 ± 0.44 nM,174 nM,0.72,0.72 ± 0.04,Crc incomplete,Crc incomplete,3.55 nM,1.05 ± 0.05,12.8 ± 0.92 nM,Inactive,Inactive,23.4 nM,–,–,–,–,–
"CSCC[C@H](NC(=O)[C@H](CC(C)C)NC(=O)CNC(=O)[C@H](Cc1ccccc1)NC(=O)[C@H](Cc1ccccc1)NC(=O)[C@@H]1CC(=O)NCCCC[C@@H](NC(=O)[C@@H](N)Cc2ccc(O)cc2)C(=O)N[C@@H](Cc2ccccc2)C(=O)N[C@@H](Cc2ccccc2)C(=O)N1)C(N)=O [compound 5, Tyr-[D-Lys-Phe-Phe-Asp]-Phe-Phe-Gly-Leu-Met-NH2] (H-Y[dK]FFDFFGLM-NH2; lactam 2-5)",–,4.9 ± 0.34 nM,96.6 ± 3.8 nM,28.3 ± 1.71 nM,–,–,0.86 ± 0.03,–,–,–,0.64 ± 0.04,51.6 ± 4.2 nM,–,–,–,389 nM,0.50 ± 0.01,67.6 nM,15.8 nM,1.11 ± 0.05
"CSCC[C@H](NC(=O)[C@H](CC(C)C)NC(=O)CNC(=O)[C@H](Cc1ccccc1)NC(=O)[C@@H]1CC(=O)NCCCC[C@@H](NC(=O)[C@@H](N)Cc2ccc(O)cc2)C(=O)N[C@@H](Cc2ccccc2)C(=O)N[C@@H](Cc2ccccc2)C(=O)N1)C(N)=O [compound 6, Tyr-[D-Lys-Phe-Phe-Asp]-Phe-Gly-Leu-Met-NH2] (H-Y[dK]FFDFGLM-NH2; lactam 2-5)",–,2.98 ± 0.14 nM,28.7 ± 1.01 nM,2.7 ± 0.12 nM,9.12 nM,–,0.81 ± 0.05,–,–,4.68 nM,0.92 ± 0.02,2330 ± 189 nM,–,–,–,151 nM,0.65 ± 0.05,–,776 nM,1.03 ± 0.05
"CSCC[C@H](NC(=O)[C@H](CC(C)C)NC(=O)CNC(=O)[C@@H]1CC(=O)NCCCC[C@@H](NC(=O)[C@@H](N)Cc2ccc(O)cc2)C(=O)N[C@@H](Cc2ccccc2)C(=O)N[C@@H](Cc2ccccc2)C(=O)N1)C(N)=O [compound 7, Tyr-[D-Lys-Phe-Phe-Asp]-Gly-Leu-Met-NH2] (H-Y[dK]FFDGLM-NH2; lactam 2-5)",–,1.14 ± 0.21 nM,113 ± 4.6 nM,0.89 ± 0.04 nM,2.04 nM,–,0.85 ± 0.05,–,–,1.58 nM,1.06 ± 0.06,8130 ± 724 nM,–,–,–,363 nM,0.38 ± 0.04,–,2090 nM,0.99 ± 0.08
